The target in one data set is T1, D1 dopamine receptor (Mus musculus, UniProt Q61616).
T1 construct: from tissue; host or cells: acute mouse striatal slices
In words: D1 agonist-induced PKA-dependent phosphorylation in striatal slices. The class given is cell-based.

Another data set has as its system calpain. The settings on record: preincubation 20 μM, 1 h, striatal slices.
Data set [1] deals with coronal mouse brain slices. In words: TTC viability staining of coronal brain slices subjected to OGD. It is filed as cell-based. The settings on record: for neuroprotective effect against OGD-induced neuronal death / viability (TTC staining) after 60 min OGD: incubation 1 h prior to and during OGD; for viability (TTC staining) after 60 min OGD: 60 min without oxygen and glucose. As for the experimental part: (§1) Slices were treated with SKF81297 (1 μM, 10 min), calpain inhibitor 3, calpeptin (20 μM, 1 h), Ca^2+-free Krebs (1 h), and Indo A or B (1 h) at indicated concentrations. See Methods.
(§2) Abs to p35, DARPP-32 (Nishi et al., 1997), GFAP, and p25 were used to stain rat coronal cryosections (20 μm) from control and stroked hemispheres. […] See Methods for further details.
Having established this pharmacological approach, the effect of OGD on neuronal viability was next quantitatively assessed by 2, 3, 5-triphenyltetrazolium chloride (TTC) staining (Bederson et al., 1986) (FIGS. 8E and 8F). TTC staining was readily observed in coronal mouse brain slices oxygenated in Kreb's buffer for 1 h. OGD induced time-dependent neuronal death with TTC staining reduced to 60.8±2.1 and 0.6±7.9% of control levels by exposure to ischemic conditions for 30 and 60 min, respectively.

A further data set addresses T2, Cdk5 (Mus musculus, UniProt P49615).
T2 construct: from tissue; host or cells: acute striatal slices
In words: Cdk5 inhibition in striatal slices by blotting phospho-Thr75 DARPP-32. The class given is cell-based. The method, then:
as §1, §2
To assess the deleterious effects of aberrantly active Cdk5/p25, the selective and potent Cdk5 inhibitor, indolinone A (Gillardon et al., 2005) (Indo A) was employed. First, its ability to inhibit Cdk5 in striatal slices was assessed by treating striatal slices with various concentrations (1-10 μM) of Indo A and blotting the lysates for the defined Cdk5 site, phospho-Thr75 DARPP-32 (Bibb et al., 1999). […] In contrast the congener Indolinone B, which is limited in specificity to Cdk4 (Weishaupt et al., 2003), had no effect on Cdk5-dependent phosphorylation of DARPP-32.

The test system of data set [2] is striatal projecting spiny neurons. The data set can be described thus: Electrophysiological recordings (EPSP, membrane potential, field potential) in corticostriatal slices under OGD. It is filed as cell-based. As to conditions: pre-treatment. From the text:
Electrophysiological recordings of FPs and single unit activity were taken from slices under physiological and OGD conditions using described methodology (Calabresi et al., 1998; Picconi et al., 2003; Costa et al., 2006).
To better understand the physiological effects of shorter periods of ischemia, a neurophysiological approach was utilized. Sharp microelectrode intracellular recordings were obtained from striatal projecting spiny neurons identified according to their electrophysiological characteristics (Calabresi et al., 1998). In these neurons, a very brief period (2-3 min) of OGD induced loss of membrane potential (FIGS. 10A-B) and a transient suppression of the excitatory post-synaptic potential (EPSP) followed by a long-term increase in the EPSP amplitude in comparison to the pre-ischemic period (139.7±10.3%, n=5, p<0.05, FIG. 10C). This long-term increase of the glutamatergic transmission at corticostriatal synapses, called post-ischemic LTP (i-LTP), represents a pathological form of synaptic plasticity occurring after brain ischemia (Calabresi et al., 2003; Calabresi et al., 1998; Calabresi et al., 2002). […] Extracellular field potential (FP) recordings were also obtained from corticostriatal slices. In control conditions, 10 min of OGD caused an irreversible loss of FP (FIGS. 10E-F).

pIC50: −log10 of the molar value. Residues, ends and D or L forms follow the SMILES beside them. *: point of attachment. Cbz = O=C(OCc1ccccc1)*

T2 sequence (P49615 whole entry): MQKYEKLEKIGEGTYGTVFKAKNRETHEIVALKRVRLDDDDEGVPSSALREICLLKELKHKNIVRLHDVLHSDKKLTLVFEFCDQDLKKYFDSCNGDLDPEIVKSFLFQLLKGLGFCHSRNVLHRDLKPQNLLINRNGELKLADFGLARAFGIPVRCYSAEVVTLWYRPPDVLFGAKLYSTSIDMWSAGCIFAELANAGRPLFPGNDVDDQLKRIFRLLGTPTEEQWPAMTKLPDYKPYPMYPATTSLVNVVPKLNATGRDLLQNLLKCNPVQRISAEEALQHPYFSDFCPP
T2 sequence (P61809 2-307 partner limits assumed): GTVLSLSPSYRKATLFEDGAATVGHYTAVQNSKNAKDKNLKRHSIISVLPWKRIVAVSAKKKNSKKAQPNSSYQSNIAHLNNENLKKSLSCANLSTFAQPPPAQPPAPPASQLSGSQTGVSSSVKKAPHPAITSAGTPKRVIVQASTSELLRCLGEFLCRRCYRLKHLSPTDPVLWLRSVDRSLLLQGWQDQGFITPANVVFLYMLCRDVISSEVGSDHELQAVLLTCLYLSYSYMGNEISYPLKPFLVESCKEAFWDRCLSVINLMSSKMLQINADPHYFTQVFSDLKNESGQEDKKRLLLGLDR
T1 sequence (Q61616 whole entry): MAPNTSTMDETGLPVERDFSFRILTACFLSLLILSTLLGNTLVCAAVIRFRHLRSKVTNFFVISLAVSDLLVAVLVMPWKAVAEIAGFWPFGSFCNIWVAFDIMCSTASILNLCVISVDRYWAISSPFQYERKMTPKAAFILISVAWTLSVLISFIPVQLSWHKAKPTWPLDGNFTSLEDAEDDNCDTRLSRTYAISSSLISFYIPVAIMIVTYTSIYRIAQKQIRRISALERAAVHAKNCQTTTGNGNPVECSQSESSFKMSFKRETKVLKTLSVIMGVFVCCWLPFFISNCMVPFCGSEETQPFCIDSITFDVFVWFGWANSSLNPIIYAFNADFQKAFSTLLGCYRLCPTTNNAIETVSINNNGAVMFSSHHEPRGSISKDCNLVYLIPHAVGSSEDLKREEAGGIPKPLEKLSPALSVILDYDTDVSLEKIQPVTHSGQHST
Description for D1 dopamine receptor: Homogenates were prepared from rapidly dissected tissue or striatal slices using standard methodology (Nishi et al., 1997).
Description for calpain: Acutely prepared coronal slices were prepared as described (Nishi et al., 1997). For OGD, slices were switched from Kreb's buffer bubbled in 95% O2/5% CO2 to 100% N2 and glucose was replaced by 10 mM sucrose for indicated periods (Sahin et al., 2008; Sahin et al., 2007). […] Homogenates were prepared from rapidly dissected tissue or striatal slices using standard methodology (Nishi et al., 1997). […] For immunostaining of cultured cells, rat primary striatal neuron cultures were prepared, subjected to control or OGD conditions, fixed and stained as described (Meyer et al., 2008).

Consider `Oc1cc2c(c(Cl)c1O)CCNCC2c1ccccc1` (centres unmarked) [SKF81297], for which, at D1 dopamine receptor (oxygenated slices, 1 μM, 5 min), the “increase in phospho-Ser845 GluR1” value was 2.0±0.1 fold and the “increase in phospho-Thr34 DARPP-32” value is reported as 3.6±0.3 fold.

For `CC(C)[C@H](NC(=O)OCc1ccccc1)C(=O)N[C@H](C=O)Cc1ccccc1` [calpain inhibitor 3] (Cbz-Val-Phe-aldehyde), the “OGD-dependent p25 generation” value in the data set on calpain was “prevented p25 generation”.

Turning to `CCCC[C@@H](C=O)NC(=O)[C@H](CC(C)C)NC(=O)OCc1ccccc1` [calpeptin], in data set [1], the “TTC staining intensity relative to 60 min OGD without inhibitor” value was 111.3±6.0 fold, the “neuroprotective effect against OGD-induced neuronal death” value (from here on “neuroprotective effect”) is listed as “significantly blocked neuronal death” and the “viability (TTC staining) after 60 min OGD” value is given as 69.6±6.6 % of control levels. The “OGD-dependent p25 generation” value with calpain was “prevented p25 generation”.

As to Indolinone B [Indo B], the “effect on Cdk5-dependent phosphorylation of DARPP-32” value at Cdk5 is given as “had no effect”. Besides, the “neuroprotective effect” value in data set [1] is reported as “no such neuroprotective effect”.

As for indolinone A [Indo A], the “phospho-Thr75 DARPP-32, reduction to % of basal levels” value at Cdk5 (5 μM) is reported as 26±8 % of basal levels. Further, the pIC50 (in general, the IC50 on a negative log10 scale, so that one unit is a factor of ten) against Cdk5 (1-10 μM, 1 h) is 6.54. In addition, the “induction of i-LTP at corticostriatal synapses” value in data set [2] (3 min OGD, n=5) is given as “completely blocked the induction of i-LTP”. For the same compound, the “loss of field potential (FP) induced by ischemia” value in data set [2] (10 min OGD) is given as “significantly reduced the loss of FP”. Besides, in data set [1], the “TTC staining intensity relative to 60 min OGD without inhibitor” value is listed as 95.5±9.6 fold, the “neuroprotective effect” value is given as “significantly blocked neuronal death” and the “viability (TTC staining) after 60 min OGD” value is 59.7±6.0 % of control levels. Besides, the “increase in phospho-Ser845 in response to SKF81297 after 10 min of ischemia” value on D1 dopamine receptor (preincubation with Indo A 10 μM, 1 h, 10 min OGD/10 min reperfusion) is given as 4.7±1.2 fold.

These data come from US8728472B2, “Antibodies that bind selectively to P25 and uses therefor” (The Board of Regents of the University of Texas System, priority 2009, dated 2014).
